Test results published in patent US11325937B2, “Glycoside compound and preparation method therefor, composition, application, and intermediate” (SHANGHAI HUTCHISON PHARMACEUTICALS LIMITED, priority 2018, dated 2022).
Read-outs that look alike come from different tables or passages of the source.

Test system: VEGF-A mRNA expression in macrophages (RAW264.7)
Assay: In vitro macrophage experiment: activity of compounds to promote VEGF-A mRNA expression (RT-qPCR)
Assay type: cell-based
Conditions: Mus musculus, read-out: Expression level of VEGF-A mRNA
From the text: 1.1. Specific steps for activity screening: 1-10×10^6 macrophages (RAW264.7) in logarithmic growth phase were transferred to a cell culture plate. The test compounds (Compounds TG-001, TG-002, TG-003, TG-004, TG-005, TG-006, TG-007, TG-008, TG-009, TG-010, TG-011, TG-012, TG-013, TG-014, TG-015, TG-016, TG-017, TG-018, TG-019, TG-020, TG-021, TG-022, TG-023, TG-024, TG-025, TG-026, TG-027, TG-028, TG-029, TG-030, TG-031, TG-032, TG-033, TG-034, TG-035, TG-036, TG-037, TG-045, TG-039, TG-040 TG-041, TG-042, TG-043, TG-044, TG-045, TG-052, TG-053, TG-054, TG-047, TG-048, TG-046, TG-049, TG-050, TG-051, TG-055 and TG-056) were respectively diluted into various concentrations, and separately added to the cell culture plate containing macrophage. The cells were cultured for 3 h in a complete medium (RPMI 1640 medium:fetal bovine serum:tri-resistance screening agent (i.e. penicillin-streptomycin-gentamicin, Beijing Leagene Biotechnology Co., Ltd.)=89:10:1 based on volume) in a cell incubator at 37° C. and 5% CO2. The cells were lyzed by Trizol (Beijing ComWin Biotech Co., Ltd) to extract RNA, and the RNA concentration was measured using a microvolume nucleic acid and protein analyzer (Nanodrop2000c). The required volume V of RNA was calculated according to the RNA concentration, and the RNA reverse transcription reaction system was prepared according to Table 1. Then RNA reverse transcription (cDNA synthesis) (RT Easy™ I (For first-strand cDNA synthesis) Reverse Transcription Kit, Chengdu ForeGene Biotechnology Co., Ltd.) was carried out according to the conditions described in Table 2. The resulting cDNA was used to prepare a fluorescence quantitative PCR reaction solution according to Table 3. The fluorescence quantitative PCR reaction conditions were set according to Table 4, and the fluorescence quantitative PCR reaction (Real time PCR Easy™-SYBR Green Fluorescence Quantification Kit, Chengdu ForeGene Biotechnology Co., Ltd.) was performed using cDNA from the reverse transcription reaction as a template. The relative expression level 2^−ΔΔCt of the target gene was calculated from the Ct value of each sample with the blank control group as a control and β-Actin as an internal reference.
Based on the maximum level of VEGF-A mRNA expression promoted by a drug at a certain concentration, the activity of the drug was determined. The expression level of VEGF-A mRNA in macrophages was defined as 1 when no drug was added. Using a traditional Chinese medicine injection Salvianolate that is used in the treatment of Cardio-cerebrovascular disease and promotes a maximum level of VEGF-A mRNA expression of 6 in macrophages (the results are shown in Table 5) as a judgment standard, the compound promoting a maximum level of VEGF-A mRNA expression of 4 or more in macrophage was a target compound. That is, when the maximum level of VEGF-A mRNA expression in macrophages promoted by the test compound is over 4-fold higher than the expression level of VEGF-A mRNA in macrophages without the addition of the test compound, the test compound was a preliminary target compound promoting angiogenesis.

[1] = 1 μM, RAW264.7 macrophages, 3 h, relative expression 2^-ΔΔCt, no drug = 1
[2] = 0.1 mM, RAW264.7 macrophages, 3 h, relative expression, no drug = 1
[3] = 0.5 mM, RAW264.7 macrophages, 3 h, relative expression, no drug = 1
[4] = 1 mM, RAW264.7 macrophages, 3 h, relative expression, no drug = 1
[5] = 2 mM, RAW264.7 macrophages, 3 h, relative expression, no drug = 1
[6] = 3 mM, RAW264.7 macrophages, 3 h, relative expression, no drug = 1

SMILES	fold induction at 1 µM [1]	fold induction at 100 µM [2]	fold induction at 500 µM [3]	fold induction at 1000 µM [4]	fold induction at 2000 µM [5]	fold induction at 3000 µM [6]	fold induction at 1 µM (RAW264.7, 3 h)	fold induction at 100 µM (RAW264.7, 3 h)	fold induction at 500 µM (RAW264.7, 3 h)	fold induction at 1000 µM (RAW264.7, 3 h)	fold induction at 2000 µM (RAW264.7, 3 h)	fold induction at 3000 µM (RAW264.7, 3 h)
CCOc1ccc(CCCCO[C@@H]2O[C@H](CO)[C@@H](O)[C@H](O)[C@H]2O)cc1 [TG-024]	1.82	1.14	1.64	4.86	8.38	4.32	–	–	–	–	–	–
COc1ccc(CCCCO[C@@H]2O[C@H](CO)[C@@H](O[C@@H]3OC(CO)[C@H](O)[C@H](O)[C@H]3O)[C@H](O)[C@H]2O)cc1 (some centres unmarked) [TG-045]	0.62	0.99	0.62	0.73	1.78	0.35	–	–	–	–	–	–
OC[C@H]1O[C@@H](OCCCCc2ccc(OCc3ccccc3F)cc2)[C@H](O)[C@@H](O)[C@@H]1O [TG-050]	1.27	2.81	1.85	2.16	1.74	15.1	–	–	–	–	–	–
OC[C@H]1O[C@@H](OCCCCc2ccc(OCC3CCOCC3)cc2)[C@H](O)[C@@H](O)[C@@H]1O [TG-020]	0.88	0.93	2.8	3.9	2.24	2.56	–	–	–	–	–	–
CC1(C)CCOc2ccc(CCCCO[C@@H]3O[C@H](CO)[C@@H](O)[C@H](O)[C@H]3O)cc21 [TG-042]	11	7.25	9.86	1.11	0.63	0.84	–	–	–	–	–	–
OC[C@H]1O[C@@H](OCCCCc2ccc(Br)cc2)[C@H](O)[C@@H](O)[C@@H]1O [TG-012]	1.99	2.31	3.14	0.5	2.08	4.38	–	–	–	–	–	–
COc1ccc(OCCCO[C@@H]2O[C@H](CO)[C@@H](O)[C@H](O)[C@H]2O)cc1 [TG-031]	–	–	–	–	–	–	0.2	0.18	0.11	2.57	1.39	0.7
OC[C@H]1O[C@@H](OCCCCc2ccc(OCC3CC3)cc2)[C@H](O)[C@@H](O)[C@@H]1O [TG-039]	1.18	2.67	9.43	1.7	0.3	0.18	–	–	–	–	–	–
CC(C)(C)COc1ccc(CCCCO[C@@H]2O[C@H](CO)[C@@H](O)[C@H](O)[C@H]2O)cc1 [TG-041]	0.62	0.84	1.97	8.17	0.16	0.23	–	–	–	–	–	–
COCCOCCOCCOCCOc1ccc(CCCCO[C@@H]2O[C@H](CO)[C@@H](O)[C@H](O)[C@H]2O)cc1 [TG-044]	0.65	1.18	1.56	1.04	0.79	0.95	–	–	–	–	–	–
CCCCCCCCCCCCCCCCOc1ccc(CCCCO[C@@H]2O[C@H](CO)[C@@H](O)[C@H](O)[C@H]2O)cc1 [TG-043]	1.16	1.52	–	3.36	4.09	4.29	–	–	–	–	–	–
OC[C@H]1O[C@@H](OCCCCc2ccc(F)cc2)[C@H](O)[C@@H](O)[C@@H]1O [TG-010]	0.98	0.68	0.69	1.48	5.31	9.78	–	–	–	–	–	–
